Measurements from patent US10646488B2 (Araxes Pharma LLC, priority 2016, dated 2020).

Biological target: T1, KRAS G12C 1-169, his-tagged protein, GDP-loaded (Homo sapiens, UniProt P01116, G12C)
T1 construct: KRAS G12C 1-169, his-tagged protein, GDP-loaded
Experiment: Covalent binding (% modification) to KRAS G12C by mass spectrometry; also: test concentration or dose not given here
Details: covalent binding to KRAS G12C after a ten minute incubation period

Row | Structure (SMILES) | Binding %
1 | C=CC(=O)N1[C@H](C)CN(c2nc(N)nc3c(F)c(-c4c(C)ccc5cn[nH]c45)c(Cl)cc23)C[C@@H]1C [Compound 6, 1-((2S,6R)-4-(2-amino-6-chloro-8-fluoro-7-(6-methyl-1H-indazol-7-yl)quinazolin-4-yl)-2,6-dimethyl-piperazin-1-yl) prop-2-en-1-one] | ++ (++ indicates binding activity from 50 to 90%)
2 | C=CC(=O)N1CCN(c2nc(NC3CCN(C4CC4)CC3)nc3c(F)c(-c4c(C)ccc5[nH]ncc45)c(Cl)cc23)[C@@H](C)C1 (atropisomer, axis not shown) [Compound 14, 1-((S)-4-(6-chloro-2-((1-cyclopropyl-piperidin-4-yl)amino)-8-fluoro-7-((S)-5-methyl-1H-indazol-4-yl)quinazolin-4-yl)-3-methyl-piperazin-1-yl) prop-2-en-1-one] | + (+ indicates binding activity up to 50%)
3 | C=CC(=O)N1CCN(c2nc(OCCN3CC(F)(F)C3)nc3c(F)c(-c4c(O)cccc4F)c(Cl)cc23)C[C@H]1C (atropisomer, axis not shown) [Compound 63, 1-((R)-4-((S)-6-chloro-2-(2-(3,3-difluoroazetidin-1-yl)ethoxy)-8-fluoro-7-(2-fluoro-6-hydroxyphenyl)quinazolin-4-yl)-2-methyl-piperazin-1-yl) prop-2-en-1-one] | +++ (+++ indicates binding activity greater than 90%)
4 | C=CC(=O)N1CCN(c2nc(N)nc3c(F)c(-c4c(C)ccc5[nH]ncc45)c(Cl)cc23)[C@@H](C)C1 [Compound 10, 1-((3S)-4-(2-amino-6-chloro-8-fluoro-7-(5-methyl-1H-indazol-4-yl)quinazolin-4-yl)-3-methyl-piperazin-1-yl) prop-2-en-1-one] | +++ (+++ indicates binding activity greater than 90%)
5 | C=CC(=O)N1CCN(c2nc(N3CC(N(C)C)C3)nc3c(F)c(-c4c(O)cccc4F)c(Cl)cc23)[C@@H](C)C1 (atropisomer, axis not shown) [Compound 58, 1-((S)-4-((S)-6-chloro-2-(3-(dimethylamino)azetidin-1-yl)-8-fluoro-7-(2-fluoro-6-hydroxyphenyl)quinazolin-4-yl)-3-methyl-piperazin-1-yl) prop-2-en-1-one] | +++ (+++ indicates binding activity greater than 90%)
6 | C=CC(=O)N1CCN(c2nc(NC3CCN(C4CC4)CC3)nc3c(F)c(-c4c(C)ccc5[nH]ncc45)c(Cl)cc23)[C@@H](C)C1 (atropisomer, axis not shown) [Compound 13, 1-((S)-4-(6-chloro-2-(1-cyclopropyl-piperidin-4-ylamino)-8-fluoro-7-((R)-5-methyl-1H-indazol-4-yl)quinazolin-4-yl)-3-methyl-piperazin-1-yl) prop-2-en-1-one] | +++ (+++ indicates binding activity greater than 90%)
7 | C=CC(=O)N1[C@H](C)CN(c2nc(NC3CCN(C4CC4)CC3)nc3c(F)c(-c4c(C)ccc5[nH]ncc45)c(Cl)cc23)C[C@@H]1C [Compound 33, 1-((2R,6S)-4-(6-chloro-2-((1-cyclopropyl-piperidin-4-yl)amino)-8-fluoro-7-(5-methyl-1H-indazol-4-yl)quinazolin-4-yl)-2,6-dimethyl-piperazin-1-yl) prop-2-en-1-one] | ++ (++ indicates binding activity from 50 to 90%)
8 | C=CC(=O)N1C[C@H](C)N(c2nc(OCCN3CC(F)(F)C3)nc3c(F)c(-c4c(O)cccc4F)c(Cl)cc23)C[C@H]1C [Compound 38, 1-((2R,5 S)-4-(6-Chloro-2-(2-(3,3-Difluoroazetidin-1-Yl)Ethoxy)-8-Fluoro-7-(2-Fluoro-6-Hydroxyphenyl)Quinazolin-4-Yl)-2,5-Dimethylpiperazin-1-Yl)Prop-2-En-1-One] | +++ (+++ indicates binding activity greater than 90%)

Same assay, conditions: covalent binding to KRAS G12C after a three minute incubation period

Row | Structure (SMILES) | Binding %
9 | C=CC(=O)N1C[C@H](C)N(c2nc(OCCN3CC(F)(F)C3)nc3c(F)c(-c4c(C)ccc5cn[nH]c45)c(Cl)cc23)C[C@H]1C (atropisomer, axis not shown) [Compound 128, 1-((2R,5S)-4-(6-chloro-2-(2-(3,3-difluoroazetidin-1-yl)ethoxy)-8-fluoro-7-((S)-6-methyl-1H-indazol-7-yl)quinazolin-4-yl)-2,5-dimethyl-piperazin-1-yl) prop-2-en-1-one] | + (+ indicates binding activity greater than 0% and up to 50%)
10 | C=CC(=O)N1C[C@H](C)N(c2nc(N3CC(N(C)CC)C3)nc3c(F)c(-c4c(O)cccc4F)c(Cl)cc23)C[C@H]1C (atropisomer, axis not shown) [Compound 155, 1-((2R,5S)-4-(6-chloro-2-(3-(ethyl(methyl)amino)azetidin-1-yl)-8-fluoro-7-((R)-2-fluoro-6-hydroxyphenyl)quinazolin-4-yl)-2,5-dimethyl-piperazin-1-yl) prop-2-en-1-one] | + (+ indicates binding activity greater than 0% and up to 50%)
11 | C=CC(=O)N1C[C@H](C)N(c2nc(N3CC4(CCN(C5CC5)C4)C3)nc3c(F)c(-c4c(O)cccc4F)c(Cl)cc23)C[C@H]1C [Compound 149, 1-((2R,5S)-4-(6-chloro-2-(6-cyclopropyl-2,6-diazaspiro[3.4]octan-2-yl)-8-fluoro-7-(2-fluoro-6-hydroxyphenyl)quinazolin-4-yl)-2,5-dimethyl-piperazin-1-yl) prop-2-en-1-one] | ++ (++ indicates binding activity from 50 to 90%)
12 | C=CC(=O)N1CCN(c2nc(N3CC(C)(N(C)C)C3)nc3c(F)c(-c4c(O)cccc4F)c(Cl)cc23)C[C@H]1C [Compound 163, 1-((2R)-4-(6-chloro-2-(3-(dimethylamino)-3-methylazetidin-1-yl)-8-fluoro-7-(2-fluoro-6-hydroxyphenyl)quinazolin-4-yl)-2-methyl-piperazin-1-yl) prop-2-en-1-one] | ++ (++ indicates binding activity from 50 to 90%)
13 | C=CC(=O)N1C[C@H](C)N(c2nc(OC3CCN(C4CC4)CC3)nc3c(F)c(-c4c(C)ccc5cn[nH]c45)c(Cl)cc23)C[C@H]1C [Compound 137, 1-((2R,5S)-4-(6-chloro-2-((1-cyclopropyl-piperidin-4-yl)oxy)-8-fluoro-7-(6-methyl-1H-indazol-7-yl)quinazolin-4-yl)-2,5-dimethyl-piperazin-1-yl) prop-2-en-1-one] | +++ (+++ indicates binding activity greater than 90%)
14 | C=CC(=O)N1C[C@H](C)N(c2nc(N3CC4(CCN4C)C3)nc3c(F)c(-c4c(C)ccc5[nH]ncc45)c(Cl)cc23)C[C@H]1C [Compound 170, 1-((2R,5S)-4-(6-chloro-8-fluoro-7-(5-methyl-1H-indazol-4-yl)-2-(1-methyl-1,6-diazaspiro[3.3]heptan-6-yl)quinazolin-4-yl)-2,5-dimethyl-piperazin-1-yl) prop-2-en-1-one] | + (+ indicates binding activity greater than 0% and up to 50%)
15 | C=CC(=O)N1C[C@H](C)N(c2nc(N3CC(N(C)C4CCC4)C3)nc3c(F)c(-c4c(C)ccc5cn[nH]c45)c(Cl)cc23)C[C@H]1C [Compound 144, 1-((2R,5S)-4-(6-chloro-2-(3-(cyclobutyl (methyl)amino)azetidin-1-yl)-8-fluoro-7-(6-methyl-1H-indazol-7-yl)quinazolin-4-yl)-2,5-dimethyl-piperazin-1-yl) prop-2-en-1-one] | +++ (+++ indicates binding activity greater than 90%)
16 | [2H]C([2H])([2H])N(C1CN(c2nc(N3C[C@@H](C)N(C(=O)C=C)C[C@@H]3C)c3cc(Cl)c(-c4c(O)cccc4F)c(F)c3n2)C1)C([2H])([2H])[2H] [Compound 196, 1-((2R,5S)-4-(2-(3-(bis (trideuteromethyl)amino)azetidin-1-yl)-6-chloro-8-fluoro-7-(2-fluoro-6-hydroxyphenyl)quinazolin-4-yl)-2,5-dimethyl-piperazin-1-yl) prop-2-en-1-one] | +++ (+++ indicates binding activity greater than 90%)
17 | CC(C)/C=C(\C#N)C(=O)N1C[C@H](C)N(c2nc(N3CC(N(C)C)C3)nc3c(F)c(-c4c(O)cccc4F)c(Cl)cc23)C[C@H]1C [Compound 101, (E)-2-((2R,5S)-4-(6-chloro-2-(3-(dimethylamino)azetidin-1-yl)-8-fluoro-7-(2-fluoro-6-hydroxyphenyl)quinazolin-4-yl)-2,5-dimethyl-piperazine-1-carbonyl)-4-methylpent-2-enenitrile] | + (+ indicates binding activity greater than 0% and up to 50%)
18 | C=CC(=O)N1C[C@H](C)N(c2nc(N3CC(N(C)C)C3)nc3c(F)c(-c4c(C)ccc5[nH]ncc45)c(Cl)cc23)C[C@H]1C (atropisomer, axis not shown) [Compound 130, 1-((2R,5S)-4-(6-chloro-2-(3-(dimethylamino)azetidin-1-yl)-8-fluoro-7-((R)-5-methyl-1H-indazol-4-yl)quinazolin-4-yl)-2,5-dimethyl-piperazin-1-yl) prop-2-en-1-one] | +++ (+++ indicates binding activity greater than 90%)
19 | C=CC(=O)N1C[C@H](C)N(c2nc(N3CC(N(C)C4CCC4)C3)nc3c(F)c(-c4c(O)cccc4F)c(Cl)cc23)C[C@H]1C [Compound 110, 1-((2R,5S)-4-(6-chloro-2-(3-(cyclobutyl (methyl)amino)azetidin-1-yl)-8-fluoro-7-(2-fluoro-6-hydroxyphenyl)quinazolin-4-yl)-2,5-dimethyl-piperazin-1-yl) prop-2-en-1-one] | ++ (++ indicates binding activity from 50 to 90%)
20 | C=CC(=O)N1C[C@H](C)N(c2nc(N3CC(N(CC)CC)C3)nc3c(F)c(-c4c(C)ccc5cn[nH]c45)c(Cl)cc23)C[C@H]1C [Compound 117, 1-((2R,5S)-4-(6-chloro-2-(3-(diethylamino)azetidin-1-yl)-8-fluoro-7-(6-methyl-1H-indazol-7-yl)quinazolin-4-yl)-2,5-dimethyl-piperazin-1-yl) prop-2-en-1-one] | + (+ indicates binding activity greater than 0% and up to 50%)
21 | C=CC(=O)N1C[C@H](C)N(c2nc(OCCCN(C)C)nc3c(F)c(-c4c(C)ccc5[nH]ncc45)c(C(F)(F)F)cc23)C[C@H]1C [Compound 215, 1-((2R,5S)-4-(2-(3-(dimethylamino)propoxy)-8-fluoro-7-(5-methyl-1H-indazol-4-yl)-6-(trifluoromethyl)quinazolin-4-yl)-2,5-dimethyl-piperazin-1-yl) prop-2-en-1-one] | +++ (+++ indicates binding activity greater than 90%)
